Test results published in patent US9828393B2, “Silylalkyloxyaryl compounds and methods for treating cancer” (THE REGENTS OF THE UNIVERSITY OF COLORADO, a body corporate, priority 2013, dated 2017).
Read-outs that look alike come from different tables or passages of the source.

Key:
Type in all cases: cell-based, human
NCI/ADR-RES = assay: NCI-60 cell line screen (SRB), NCI/ADR-RES; settings: Homo sapiens
Description: (§1) Drug sensitivity data are provided as GI50s (concentrations required to inhibit growth by 50%). The first row of the text file identifies cell lines, separated by tabs. Subsequent rows contain compound number, compound name, and GI50 for each cell line, each separated by a tab. […] For a typical screening experiment, cells are inoculated into 96 well microtiter plates in 100 μL at plating densities ranging from 5,000 to 40,000 cells/well depending on the doubling time of individual cell lines. After cell inoculation, the microtiter plates are incubated at 37° C., 5% CO2, 95% air and 100% relative humidity for 24 h prior to addition of experimental drugs. After 24 h, two plates of each cell line are fixed in situ with TCA, to represent a measurement of the cell population for each cell line at the time of drug addition (Tz). Experimental drugs are solubilized in dimethyl sulfoxide at 400-fold the desired final maximum test concentration and stored frozen prior to use. At the time of drug addition, an aliquot of frozen concentrate is thawed and diluted to twice the desired final maximum test concentration with complete medium containing 50 μg/ml gentamicin. Additional four, 10-fold or one-half log serial dilutions are made to provide a total of five drug concentrations plus control. Aliquots of 100 μl of these different drug dilutions are added to the appropriate microtiter wells already containing 100 μl of medium, resulting in the required final drug concentrations. Following drug addition, the plates are incubated for an additional 48 h at 37° C., 5% CO2, 95% air, and 100% relative humidity. For adherent cells, the assay is terminated by the addition of cold TCA. Cells are fixed in situ by the gentle addition of 50 μl of cold 50% (w/v) TCA (final concentration, 10% TCA) and incubated for 60 minutes at 4° C. The supernatant is discarded, and the plates are washed five times with tap water and air dried. Sulforhodamine B (SRB) solution (100 μl) at 0.4% (w/v) in 1% acetic acid is added to each well, and plates are incubated for 10 minutes at room temperature. After staining, unbound dye is removed by washing five times with 1% acetic acid and the plates are air dried. Bound stain is subsequently solubilized with 10 mM trizma base, and the absorbance is read on an automated plate reader at a wavelength of 515 nm. For suspension cells, the methodology is the same except that the assay is terminated by fixing settled cells at the bottom of the wells by gently adding 50 μl of 80% TCA (final concentration, 16% TCA). Using the seven absorbance measurements [time zero, (Tz), control growth, (C), and test growth in the presence of drug at the five concentration levels (Ti)], the percentage growth is calculated at each of the drug concentrations levels. […]

HOP-92 = assay: NCI-60 cell line screen (SRB), HOP-92; settings: Homo sapiens
Description: as §1

HS 578T = assay: NCI-60 cell line screen (SRB), HS 578T; settings: Homo sapiens
Description: as §1

[1] = test system: Prostate Cancer cell lines; assay: NCI-60 cell line screen, Prostate Cancer panel average; settings: Homo sapiens, read-out: GI50 Average
Description: as §1

Leukemia cell lines = assay: NCI-60 cell line screen, Leukemia panel average; settings: Homo sapiens, read-out: GI50 Average
Description: as §1

U-251 = assay: NCI-60 cell line screen (SRB), U-251; settings: Homo sapiens
Description: as §1

Melanoma cell lines = assay: NCI-60 cell line screen, Melanoma panel average; settings: Homo sapiens, read-out: GI50 Average
Description: as §1

HOP-62 = assay: NCI-60 cell line screen (SRB), HOP-62; settings: Homo sapiens
Description: as §1

SW-620 = assay: NCI-60 cell line screen (SRB), SW-620; settings: Homo sapiens
Description: as §1

MDA-MB-468 = assay: NCI-60 cell line screen (SRB), MDA-MB-468; settings: Homo sapiens
Description: as §1

HCT-116 = assay: NCI-60 cell line screen (SRB), HCT-116; settings: Homo sapiens
Description: as §1

NCI-H226 = assay: NCI-60 cell line screen (SRB), NCI-H226; settings: Homo sapiens
Description: as §1

Breast Cancer cell lines = assay: NCI-60 cell line screen, Breast Cancer panel average; settings: Homo sapiens, read-out: GI50 Average
Description: as §1

K-562 = assay: NCI-60 cell line screen (SRB), K-562; settings: Homo sapiens
Description: as §1

COLO 205 = assay: NCI-60 cell line screen (SRB), COLO 205; settings: Homo sapiens
Description: as §1

OVCAR-3 = assay: NCI-60 cell line screen (SRB), OVCAR-3; settings: Homo sapiens
Description: as §1

HCT-15 = assay: NCI-60 cell line screen (SRB), HCT-15; settings: Homo sapiens
Description: as §1

NCI-H522 = assay: NCI-60 cell line screen (SRB), NCI-H522; settings: Homo sapiens
Description: as §1

HT29 = assay: NCI-60 cell line screen (SRB), HT29; settings: Homo sapiens
Description: as §1

MDA-MB-435 = assay: NCI-60 cell line screen (SRB), MDA-MB-435; settings: Homo sapiens
Description: as §1

DU145 = assay: NCI-60 cell line screen (SRB), DU145; settings: Homo sapiens
Description: as §1

MDA-MB-231/ATCC = assay: NCI-60 cell line screen (SRB), MDA-MB-231/ATCC; settings: Homo sapiens
Description: as §1

Colon Cancer cell lines = assay: NCI-60 cell line screen, Colon Cancer panel average; settings: Homo sapiens, read-out: GI50 Average
Description: as §1

OVCAR-8 = assay: NCI-60 cell line screen (SRB), OVCAR-8; settings: Homo sapiens
Description: as §1

CC1(C)CC(NC(=O)[C@H](Cc2ccc(OCc3c(Cl)cccc3Cl)cc2)NC(=O)c2ccc(OCCC[Si](C)(C)C)cc2)CC(C)(C)N1 [GH1501, N^α-{4-[3-(trimethylsilyl)propoxy]-benzoyl}-N-(2,2,6,6-tetramethylpiperidin-4-yl)-[O-(2,6-dichlorobenzyl)-L-tyrosinamide]]
GI50 (NCI/ADR-RES; 48 h): 1480 nM
GI50 (HOP-92; HOP-92, 48 h): 1170 nM
GI50 (HS 578T; Hs-578T, 48 h): 1920 nM
GI50 [1]: 834 nM
GI50 (Leukemia cell lines): 802 nM
GI50 (U-251; U-251, 48 h): 230 nM
GI50 (Melanoma cell lines): 1180 nM
GI50 (HOP-62; HOP-62, 48 h): 1860 nM
GI50 (SW-620; SW-620, 48 h): 313 nM
GI50 (MDA-MB-468; MDA-MB-468, 48 h): 1700 nM
GI50 (HCT-116; HCT-116, 48 h): 206 nM
GI50 (NCI-H226; NCI-H226, 48 h): 1770 nM
GI50 (Breast Cancer cell lines): 1460 nM
GI50 (K-562; K562, 48 h): 322 nM
GI50 (COLO 205; COLO 205, 48 h): 216 nM
GI50 (OVCAR-3; OVCAR-3, 48 h): 1250 nM
GI50 (HCT-15; HCT-15, 48 h): 357 nM
GI50 (NCI-H522; NCI-H522, 48 h): 1820 nM
GI50 (HT29; HT-29, 48 h): 263 nM
GI50 (MDA-MB-435; MDA-MB-435, 48 h): 269 nM
GI50 (DU145; DU-145, 48 h): 347 nM
GI50 (MDA-MB-231/ATCC; MDA-MB-231, 48 h): 881 nM
GI50 (Colon Cancer cell lines): 395 nM
GI50 (OVCAR-8; OVCAR-8, 48 h): 268 nM

CCCC[Si](C)(C)COc1ccc(C(=O)N[C@@H](Cc2ccc(OCc3c(Cl)cccc3Cl)cc2)C(=O)NC2CC(C)(C)NC(C)(C)C2)cc1 [GH1503, N^α-{4-[(butyldimethylsilyl)methoxy]-benzoyl}-N-(2,2,6,6-tetramethylpiperidin-4-yl)-[O-(2,6-dichlorobenzyl)-L-tyrosinamide]]
GI50 (NCI/ADR-RES; Ovarian Cancer, 48 h drug incubation, read-out: GI50): 1250 nM
GI50 (HOP-92; Non-Small Cell Lung Cancer, HOP-92, 48 h drug incubation, read-out: GI50): 1110 nM
GI50 (HS 578T; Breast Cancer, HS 578T, 48 h drug incubation, read-out: GI50): 2010 nM
GI50 ([1]; average over Prostate Cancer panel): 382 nM
GI50 (Leukemia cell lines; average over Leukemia panel): 572 nM
GI50 (U-251; CNS Cancer, U-251, 48 h drug incubation, read-out: GI50): 234 nM
GI50 (Melanoma cell lines; average over Melanoma panel): 1130 nM
GI50 (HOP-62; Non-Small Cell Lung Cancer, HOP-62, 48 h drug incubation, read-out: GI50): 1510 nM
GI50 (SW-620; Colon Cancer, SW-620, 48 h drug incubation, read-out: GI50): 318 nM
GI50 (MDA-MB-468; Breast Cancer, MDA-MB-468, 48 h drug incubation, read-out: GI50): 1540 nM
GI50 (HCT-116; Colon Cancer, HCT-116, 48 h drug incubation, read-out: GI50): 319 nM
GI50 (NCI-H226; Non-Small Cell Lung Cancer, NCI-H226, 48 h drug incubation, read-out: GI50): 1340 nM
GI50 (Breast Cancer cell lines; average over Breast Cancer panel): 1390 nM
GI50 (K-562; K562, Leukemia, K-562, 48 h drug incubation, read-out: GI50): 333 nM
GI50 (COLO 205; Colon Cancer, COLO 205, 48 h drug incubation, read-out: GI50): 342 nM
GI50 (OVCAR-3; Ovarian Cancer, OVCAR-3, 48 h drug incubation, read-out: GI50): 761 nM
GI50 (HCT-15; Colon Cancer, HCT-15, 48 h drug incubation, read-out: GI50): 323 nM
GI50 (NCI-H522; Non-Small Cell Lung Cancer, NCI-H522, 48 h drug incubation, read-out: GI50): 1970 nM
GI50 (HT29; HT-29, Colon Cancer, HT29, 48 h drug incubation, read-out: GI50): 342 nM
GI50 (MDA-MB-435; Melanoma, MDA-MB-435, 48 h drug incubation, read-out: GI50): 250 nM
GI50 (DU145; DU-145, Prostate Cancer, DU145, 48 h drug incubation, read-out: GI50): 274 nM
GI50 (MDA-MB-231/ATCC; Breast Cancer, MDA-MB-231/ATCC, 48 h drug incubation, read-out: GI50): 494 nM
GI50 (Colon Cancer cell lines; average over Colon Cancer panel): 442 nM
GI50 (OVCAR-8; Ovarian Cancer, OVCAR-8, 48 h drug incubation, read-out: GI50): 263 nM

CCCC[Si](C)(C)COc1ccc(C(=O)N[C@@H](Cc2ccc(-c3ccccc3)cc2)C(=O)NC2CC(C)(C)NC(C)(C)C2)cc1 [GH1504, N^α-{4-[(butyldimethylsilyl)methoxy]-benzoyl}-N-(2,2,6,6-tetramethylpiperidin-4-yl)-(4-phenyl-L-phenylalaninamide)]
GI50 (NCI/ADR-RES; 48 h): 1540 nM
GI50 (HOP-92; HOP-92, 48 h): 1370 nM
GI50 (HS 578T; Hs-578T, 48 h): 1850 nM
GI50 [1]: 834 nM
GI50 (Leukemia cell lines): 1170 nM
GI50 (U-251; U-251, 48 h): 238 nM
GI50 (Melanoma cell lines): 886 nM
GI50 (HOP-62; HOP-62, 48 h): 1360 nM
GI50 (SW-620; SW-620, 48 h): 316 nM
GI50 (MDA-MB-468; MDA-MB-468, 48 h): 198 nM
GI50 (HCT-116; HCT-116, 48 h): 218 nM
GI50 (NCI-H226; NCI-H226, 48 h): 183 nM
GI50 (Breast Cancer cell lines): 1170 nM
GI50 (K-562; K562, 48 h): 386 nM
GI50 (COLO 205; COLO 205, 48 h): 215 nM
GI50 (OVCAR-3; OVCAR-3, 48 h): 202 nM
GI50 (HCT-15; HCT-15, 48 h): 309 nM
GI50 (NCI-H522; NCI-H522, 48 h): 1060 nM
GI50 (HT29; HT-29, 48 h): 315 nM
GI50 (MDA-MB-435; MDA-MB-435, 48 h): 292 nM
GI50 (DU145; DU-145, 48 h): 368 nM
GI50 (MDA-MB-231/ATCC; MDA-MB-231, 48 h): 880 nM
GI50 (Colon Cancer cell lines): 408 nM
GI50 (OVCAR-8; OVCAR-8, 48 h): 216 nM
